Experimental data published in patent US7893199B2, “Peptides having neutrophil-stimulating activity” (National University Corporation Gunma University, priority 2006, dated 2011).
Like-named read-outs stand apart in the source and are kept apart here. Where a SMILES comes first, the peptide text is derived from it. Where no end group is shown, it is not given here.

Assays:
[1] = tested on: HL-60 cells differentiated into the neutrophil-like cells; experiment: β-hexosaminidase-secreting activity of neutrophil-like differentiated HL-60 cells; type: cell-based, human; conditions: for Activity (β-hexosaminidase-secreting activity class): lowest concentration class at which secretion was confirmed
Description: (1) Culture of Cell and Differentiation Into Neutrophil-like Cell
In this time, the cells were subcultured at a cell density of 1.0×10^5 cells/ml to 1.5×10^6 cells/ml, the number of cells was counted using a microscope, and the state of the cells was also confirmed.
The HL-60 cells were differentiated into neutrophil-like cells by setting the cell density in the flask to about 1.0×10^6 cells/ml, adding dibutylyl-cAMP (db-cAMP) as a differentiation-inducing agent so as to have a final concentration of 500 μM, and incubating the cells in the presence of CO2 at 37° C. for 3 days.
(2) Stimulation of Cell and Measurement of β-Hexosaminidase-secreting Activity
The cells were collected by centrifuging the suspension of the differentiated HL-60 cells (1,000 rpm, 5 minutes, 4° C.). After that, the following operation was repeated three times to wash the cells: Hepes buffered Hank's solution (HBHS) containing ice-cooled 0.1% BSA (1.2 mM CaCl2.2H2O, 5.4 mM KCl, 0.44 mM KH2PO4, 0.49 mM MgCl2.6H2O, 0.41 mM MgSO4.7H2O, 136.9 mM NaCl, 0.34 mM Na2HPO4, 10 mM Hepes, 4.2 mM NaHCO3, 5.5 mM D-glucose, pH 7.4) was added to the cells; the mixture was suspended by inversion; and the mixture was centrifuged again (1,000 rpm, 5 minutes, 4° C.). Subsequently, HBHS was added so that the mixture has a cell density of 5.6×10^6 cells/ml and suspended. Then, DNase I and cytochalasin B were each added so as to have a final concentration of 5 μg/ml, and the cell suspension was dispensed in an amount of 90 μl (5×10^5 cells) on ice. […] After the cell stimulation for 10 minutes, 100 μl of an ice-cooled stop solution (25 mM Tris, 123 mM NaCl, 2.7 mM KCl, pH 7.4) were added, and immediately, the mixture was centrifuged (5,000 rpm, 1 minute, 4° C.). 200 μl of the obtained supernatant were transferred to a new tube.
The amount of β-hexosaminidase released in the supernatant of the reaction solution was measured by an enzyme reaction using p-nitrophenyl-N-acetyl-μ-D-glucosaminide as a substrate (Non-patent Document 12). That is, the supernatant of the reaction solution was dispensed in an amount of 90 μl to a 96-well plate. 60 μl of a substrate solution (10 mM p-nitrophenyl-N-acetyl-μ-D-glucosaminide, 40 mM citrate, 70 mM Na2HPO4, pH 4.5) were added to each well, followed by incubation at 37° C. for 1 hour. After the reaction, 100 μl of a stop solution (0.4 M glycine, pH 10.7) were added to each well and a color of the released p-nitrophenol was developed. The color development was measured with a plate reader at adsorption at 405 nm (reference: 492 nm). The all amount of β-hexosaminidase contained in the cells was quantified by treating the cells with Triton X-100 having a final concentration of 0.05%. In addition, the amount of β-hexosaminidase secreted by stimulation of 10 μM fMLP was also measured, and the ratio of the secretion amount by stimulation with each peptide to the above sectretion amount by stimulation with fMLP.

[2] = tested on: differentiated HL-60 cells; experiment: migration activity (Chemotaxis Index) of differentiated HL-60 cells; type: cell-based, human
Method: (3) Measurement of Migration Activity
The cells were collected by centrifuging the suspension of the differentiated HL-60 cells (1,000 rpm, 5 minutes, 4° C.). After that, the following operation was repeated three times to wash the cells: 10% FBS-RPMI1640 was added to the cells; the mixture was suspended by inversion; and the mixture was centrifuged again (1,000 rpm, 5 minutes, 4° C.). Then, a medium (10% FBS-RPMI1640) was added so that a cell density was 4×10^6 cells/ml, thereby a cell suspension was prepared. Subsequently, 1 ml of each peptide solution (dissolved in 10% FBS-RPMI 1640) was transferred to each well of a 24-well plate, and the plate was incubated at 37° C. for 20 minutes. After that, 500 μl of the cell suspension (2×10^6 cells) were put in Chemotaxicell (KURABO […] LTD., 3 μm) and the Chemotaxicell was set in a plate, followed by incubation in the presence of 5% CO2 at 37° C. for 1 hour. Then, the Chemotaxicell was removed and the solution in each well of the plate was pipetted. The cells migrated to the plate side was suspended well and the number of the cells were measured. Note that the migration activity by the peptide was represented by a ratio of the number of the cells to the number of the cells passing the Chemotaxicell at the time of non-stimulation (Chemotaxis Index, CI).

[3] = differentiated HL-60 cells, read-out: EC50, β-hexosaminidase-secreting activity
[4] = neutrophil-like differentiated HL-60 cells, Table 1, read-out: EC50 (μM), β-hexosaminidase-secreting activity
[5] = neutrophil-like differentiated HL-60 cells

Compound	EC50 [1, 3] [µM]	EC50 [1, 4] [µM]	concentration of migration activity compared with that of β-hexosaminidase-secreting activity [2]	desensitization of migration activity with increasing concentration of the peptide [2]	β-hexosaminidase-secreting activity of C-terminally extended peptide compared to the peptide before the extension ([1]; differentiated HL-60 cells)	Activity (β-hexosaminidase-secreting activity class) [1, 5]
CC[C@H](C)[C@H](NC(=O)[C@H](CS)NC(=O)[C@H](CC(C)C)NC(=O)[C@H](CCC(N)=O)NC(=O)[C@@H]1CCCN1C(=O)[C@H](CO)NC(=O)[C@H](Cc1ccccc1)NC(=O)[C@H](Cc1c[nH]cn1)NC(=O)[C@H](C)NC(=O)[C@H](CCCNC(=N)N)NC(=O)[C@H](CC(C)C)NC(=O)[C@H](CS)NC(=O)[C@H](Cc1c[nH]cn1)NC(=O)[C@H](CCCNC(=N)N)NC(=O)CNC(=O)[C@@H](NC(=O)[C@H](Cc1c[nH]cn1)NC(=O)[C@H](CCCNC(=N)N)NC(=O)[C@H](CC(C)C)NC(=O)[C@H](CC(C)C)NC(=O)[C@H](CC(C)C)NC(=O)[C@H](C)NC(=O)[C@H](C)NC(=O)[C@@H](N)CCSC)C(C)C)C(=O)N[C@@H](CCCNC(=N)N)C(=O)N[C@@H](CC(N)=O)C(=O)N[C@@H](C)C(=O)N[C@H](C(=O)N1CCC[C@H]1C(=O)N[C@@H](CC(C)C)C(=O)O)C(C)C [No. 023] (H-MAALLLRHVGRHCLRAHFSPQLCIRNAVPL-OH; N-terminus and C-terminus assumed)	0.3	–	confirmed at the almost same concentration	subjected to desensitization completely	–	–
MFPLARNALSSLKIQSILQSMARH [No. 048]	0.1	–	confirmed at the almost same concentration	–	–	–
MFPLVKSALNRLQVRSIQQTMARQSHQKRT [No. 031]	0.2	–	confirmed at the almost same concentration	–	higher activity compared to the peptides before the extension	–
MFRRPVLQVLRQFVRH [No. 037]	0.11	–	confirmed at the almost same concentration	subjected to desensitization completely	–	–
MLWNLLALHQIGQRTISTASHRHFKNKVPEKQK [No. 032]	0.15	–	confirmed at the concentration lower than the concentration at which β-hexosaminidase-secreting activity was confirmed	–	higher activity compared to the peptides before the extension	–
MSVLTPLLLRGLTGSARRLPVPRAK [No. 007]	8	–	–	–	–	–
MSVLTPLLLRGLTGSARRLPVPRAK [compound 007]	–	8	–	–	–	∘ (a peptide in which the β-hexosaminidase-secreting activity was confirmed at a concentration of 1 μM or less)
MSVLTPLLLRGLTGSARRLPVPRAKIHSLPPEGK [No. 033]	6	–	–	–	higher activity compared to the peptides before the extension	–

Now from value to compound, other results behind:

EC50 [1, 3] [µM]	EC50 [1, 4] [µM]	Compound	concentration of migration activity compared with that of β-hexosaminidase-secreting activity [2]	desensitization of migration activity with increasing concentration of the peptide [2]	β-hexosaminidase-secreting activity of C-terminally extended peptide compared to the peptide before the extension ([1]; differentiated HL-60 cells)	Activity (β-hexosaminidase-secreting activity class) [1, 5]
–	0.2	MFPLVKSALNRLQVRSIQQTMARQSHQKRT [compound 031]	–	–	–	⊚ (a peptide in which the β-hexosaminidase-secreting activity was confirmed at a concentration of 300 nM or less)
–	0.11	MFRRPVLQVLRQFVRH [compound 037]	–	–	–	⊚ (a peptide in which the β-hexosaminidase-secreting activity was confirmed at a concentration of 300 nM or less)
–	2	MKLLTRAGSFSRFY [compound 040]	–	–	–	⊚ (a peptide in which the β-hexosaminidase-secreting activity was confirmed at a concentration of 300 nM or less)
–	6.1	MLATRVFSLVGKRAISTSVCVR [compound 018]	–	–	–	∘ (a peptide in which the β-hexosaminidase-secreting activity was confirmed at a concentration of 1 μM or less)
–	1.1	MLRLPTVFRQMRPVSRVLAPHLTRAY [compound 024]	–	–	–	⊚ (a peptide in which the β-hexosaminidase-secreting activity was confirmed at a concentration of 300 nM or less)
–	0.78	MLRNLLALRQIGQRTISTASRRH [compound 012]	–	–	–	∘ (a peptide in which the β-hexosaminidase-secreting activity was confirmed at a concentration of 1 μM or less)
–	0.23	MLWNLLALHQIGQRTISTASHRH [compound 019]	–	–	–	⊚ (a peptide in which the β-hexosaminidase-secreting activity was confirmed at a concentration of 300 nM or less)
–	0.15	MLWNLLALHQIGQRTISTASHRHFKNKVPEKQK [compound 032]	–	–	–	⊚ (a peptide in which the β-hexosaminidase-secreting activity was confirmed at a concentration of 300 nM or less)
–	1.7	MQALRVSQALIRSFSSTARNR [compound 011]	–	–	–	⊚ (a peptide in which the β-hexosaminidase-secreting activity was confirmed at a concentration of 300 nM or less)
–	6	MSVLTPLLLRGLTGSARRLPVPRAKIHSLPPEGK [compound 033]	–	–	–	∘ (a peptide in which the β-hexosaminidase-secreting activity was confirmed at a concentration of 1 μM or less)
